Measured values from ChEMBL document CHEMBL1201862, “PubChem BioAssay data set” (2004).
Calls of active or inactive are those of the source.

Columns and labels:
[1] = target: T1, Kappa-type opioid receptor (Homo sapiens, UniProt P41145); assay type: functional
[2] = target: Beta-galactosidase (Escherichia coli, UniProt Q8VNN2); assay type: functional
[3] = target: T1, Kappa-type opioid receptor; assay type: functional; remark: listed apart in the source
[4] = target: T2, Rac GTPase-activating protein 1 (Homo sapiens, UniProt Q9H0H5); assay: blockers of MgcRacGAP-driven Rac1 GTP hydrolysis – biochemical, ADP Hunter fluorescence, primary and confirmatory, confirmation (AID 624330); assay type: functional
T2 sequence (Q9H0H5 whole entry): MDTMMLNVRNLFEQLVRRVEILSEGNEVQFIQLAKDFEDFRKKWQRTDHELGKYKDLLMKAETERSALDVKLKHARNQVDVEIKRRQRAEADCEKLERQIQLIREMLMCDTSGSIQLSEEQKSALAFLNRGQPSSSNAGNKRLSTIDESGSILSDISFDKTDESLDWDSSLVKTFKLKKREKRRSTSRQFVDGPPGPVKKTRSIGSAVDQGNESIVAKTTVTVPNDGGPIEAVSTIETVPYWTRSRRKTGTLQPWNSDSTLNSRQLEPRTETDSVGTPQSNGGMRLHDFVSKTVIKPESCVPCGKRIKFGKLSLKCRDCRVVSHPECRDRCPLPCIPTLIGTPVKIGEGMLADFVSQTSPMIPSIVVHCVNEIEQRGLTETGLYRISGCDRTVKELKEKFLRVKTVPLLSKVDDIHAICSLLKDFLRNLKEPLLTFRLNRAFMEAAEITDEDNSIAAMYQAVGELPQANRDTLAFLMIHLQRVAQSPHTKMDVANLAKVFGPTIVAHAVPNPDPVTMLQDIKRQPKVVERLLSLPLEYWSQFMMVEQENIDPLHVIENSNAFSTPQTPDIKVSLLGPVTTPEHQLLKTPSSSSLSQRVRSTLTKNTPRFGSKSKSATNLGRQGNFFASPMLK

[5] = target: Protein S100-A4 (Homo sapiens, UniProt P26447); assay: human S100A4 peptide interaction inhibition curves – biochemical, fluorescence polarization, cherry-picked hits, dose response (AID 687001); assay type: functional
Protein S100-A4, sequence (P26447 whole entry): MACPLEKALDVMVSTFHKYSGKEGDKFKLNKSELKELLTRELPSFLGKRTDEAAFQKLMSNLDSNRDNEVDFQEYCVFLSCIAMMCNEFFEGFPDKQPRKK

[6] = target: Paired box protein Pax-8 (Homo sapiens, UniProt Q06710); assay: PAX8 transcriptional activity inhibition in RMG-I – RMG-I cells, luciferase, cherry-pick, dose response (AID 687027); assay type: functional, cell-based;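 note: luciferase reporter driven by Pax8 target thyroperoxidase promoter measured by SteadyGlo luminescence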
Paired box protein Pax-8, sequence (Q06710 whole entry): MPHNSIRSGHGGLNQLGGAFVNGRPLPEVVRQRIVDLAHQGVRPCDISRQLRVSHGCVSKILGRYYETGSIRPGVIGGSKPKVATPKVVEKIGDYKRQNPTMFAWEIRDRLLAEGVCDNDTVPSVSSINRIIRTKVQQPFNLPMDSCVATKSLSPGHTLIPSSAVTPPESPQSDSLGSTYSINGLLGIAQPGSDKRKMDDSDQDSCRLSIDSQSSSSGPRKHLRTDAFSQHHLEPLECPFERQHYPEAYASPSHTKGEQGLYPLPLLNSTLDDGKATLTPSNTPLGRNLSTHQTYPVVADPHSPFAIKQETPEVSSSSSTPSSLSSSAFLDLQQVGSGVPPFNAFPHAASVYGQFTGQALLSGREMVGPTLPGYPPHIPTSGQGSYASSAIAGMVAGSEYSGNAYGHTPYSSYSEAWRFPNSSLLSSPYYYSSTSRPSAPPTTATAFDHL

[7] = test system: HeLa; assay: viability loss in HeLa cells – cell-based, 24 h, cherry-picked samples, cytotoxicity control, dose response (AID 504726); assay type: functional; details: Homo sapiens;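 note: potency for cytotoxicity as loss of luminescence signal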
[8] = target: Nonstructural protein 1 (Influenza A virus, UniProt Q194T2); assay type: functional, Influenza A virus (A/California/07/2009(H1N1))
Nonstructural protein 1, sequence (Q194T2 whole entry): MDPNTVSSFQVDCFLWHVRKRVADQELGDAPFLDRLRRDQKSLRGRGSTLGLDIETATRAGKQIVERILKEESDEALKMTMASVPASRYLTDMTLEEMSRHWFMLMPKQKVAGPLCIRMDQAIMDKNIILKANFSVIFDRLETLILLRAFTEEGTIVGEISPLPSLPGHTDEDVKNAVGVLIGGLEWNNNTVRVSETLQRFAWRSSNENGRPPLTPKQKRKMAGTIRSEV

[9] = target: ORF 73 (Human herpesvirus 8, UniProt O40947); assay: KSHV LANA DNA-binding disruption – biochemical, fluorescence polarization, cherry-picked samples, dose response (AID 504725); set-up: species or system Human gammaherpesvirus 8;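 note: fluorescence polarization of a labeled DNA duplex reporting LANA DNA binding; potency is for inhibitors that block LANA binding to the DNA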
ORF 73, sequence (O40947 whole entry): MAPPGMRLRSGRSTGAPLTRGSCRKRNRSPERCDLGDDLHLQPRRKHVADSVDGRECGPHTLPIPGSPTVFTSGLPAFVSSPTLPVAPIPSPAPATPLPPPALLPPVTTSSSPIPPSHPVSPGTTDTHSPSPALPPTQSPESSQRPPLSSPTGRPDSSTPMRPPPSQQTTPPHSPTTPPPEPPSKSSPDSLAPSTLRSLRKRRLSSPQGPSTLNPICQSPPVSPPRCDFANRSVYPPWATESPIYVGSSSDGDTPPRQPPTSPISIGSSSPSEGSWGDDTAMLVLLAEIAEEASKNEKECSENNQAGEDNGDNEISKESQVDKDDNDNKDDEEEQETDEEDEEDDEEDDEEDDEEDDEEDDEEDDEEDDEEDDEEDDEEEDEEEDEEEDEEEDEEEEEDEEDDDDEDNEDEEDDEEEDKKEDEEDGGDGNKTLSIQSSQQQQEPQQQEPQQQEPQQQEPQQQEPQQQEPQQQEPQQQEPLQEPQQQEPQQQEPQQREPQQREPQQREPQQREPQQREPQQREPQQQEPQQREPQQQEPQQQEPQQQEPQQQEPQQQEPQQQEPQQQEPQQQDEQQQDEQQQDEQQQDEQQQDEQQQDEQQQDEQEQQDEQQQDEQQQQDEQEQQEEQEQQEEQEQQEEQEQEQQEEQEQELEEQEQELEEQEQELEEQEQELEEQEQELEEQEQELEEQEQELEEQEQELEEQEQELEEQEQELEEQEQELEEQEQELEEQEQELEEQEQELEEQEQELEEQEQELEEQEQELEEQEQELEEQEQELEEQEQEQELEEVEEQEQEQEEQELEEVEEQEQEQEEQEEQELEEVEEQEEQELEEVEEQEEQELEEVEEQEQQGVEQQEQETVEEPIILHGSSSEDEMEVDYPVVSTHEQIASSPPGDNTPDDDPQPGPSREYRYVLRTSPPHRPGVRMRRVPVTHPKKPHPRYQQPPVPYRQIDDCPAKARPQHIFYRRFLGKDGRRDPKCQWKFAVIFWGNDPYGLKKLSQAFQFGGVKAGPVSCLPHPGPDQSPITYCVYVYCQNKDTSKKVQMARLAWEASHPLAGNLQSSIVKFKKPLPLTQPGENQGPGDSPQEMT

[10] = viability loss in HeLa cells – cytotoxicity control for MgcRacGAP inhibitor project, dose response (AID 624300); assay type: functional
[11] = target: T3, Zinc finger protein mex-5 (Caenorhabditis elegans, UniProt Q9XUB2); assay: potency of MEX-5 RNA-binding blockers – biochemical, C. elegans, fluorescence polarization, dose response (AID 1960)
T3 sequence (Q9XUB2 whole entry): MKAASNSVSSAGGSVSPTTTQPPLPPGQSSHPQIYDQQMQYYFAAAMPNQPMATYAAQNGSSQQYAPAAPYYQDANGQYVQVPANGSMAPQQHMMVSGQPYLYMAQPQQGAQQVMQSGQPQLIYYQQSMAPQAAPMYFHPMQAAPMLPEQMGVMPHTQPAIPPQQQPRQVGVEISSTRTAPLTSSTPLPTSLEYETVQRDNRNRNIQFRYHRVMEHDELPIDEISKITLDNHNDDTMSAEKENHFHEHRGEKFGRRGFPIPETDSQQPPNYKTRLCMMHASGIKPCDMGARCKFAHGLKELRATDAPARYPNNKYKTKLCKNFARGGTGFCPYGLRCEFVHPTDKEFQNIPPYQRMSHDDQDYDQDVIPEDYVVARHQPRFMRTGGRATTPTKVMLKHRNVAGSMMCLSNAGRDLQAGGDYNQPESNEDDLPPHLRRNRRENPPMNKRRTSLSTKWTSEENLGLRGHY

[12] = target: T4, RNA-binding protein pos-1 (Caenorhabditis elegans, UniProt G5EF15); assay: disruptors of C. elegans POS-1 RNA interaction – biochemical, fluorescence polarization, dose response (AID 1964);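 note: purified POS-1 fused to maltose binding protein made in E. coli; potency of compounds blocking POS-1 binding to fluorescent RNA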
T4 sequence (G5EF15 whole entry): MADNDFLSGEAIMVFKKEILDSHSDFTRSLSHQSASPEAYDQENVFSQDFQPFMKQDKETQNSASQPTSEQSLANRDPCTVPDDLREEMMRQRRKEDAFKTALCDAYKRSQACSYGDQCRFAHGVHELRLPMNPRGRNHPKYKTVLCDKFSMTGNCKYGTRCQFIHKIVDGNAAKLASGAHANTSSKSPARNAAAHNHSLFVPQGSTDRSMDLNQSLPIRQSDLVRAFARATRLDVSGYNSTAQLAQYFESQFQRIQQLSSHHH

[13] = target: Protein Rev (Human immunodeficiency virus type 1 group M subtype B (isolate HXB2)(HIV-1), UniProt P04618); assay: blockers of HIV Rev/RRE RNA complex – biochemical, fluorescence polarization, HIV-1, dose response (AID 434976); set-up: species or system Human immunodeficiency virus 1
Protein Rev, sequence (P04618 whole entry): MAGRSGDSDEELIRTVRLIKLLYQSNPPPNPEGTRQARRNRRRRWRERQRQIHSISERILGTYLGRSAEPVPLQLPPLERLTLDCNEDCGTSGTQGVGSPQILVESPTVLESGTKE

[14] = target: Female germline-specific tumor suppressor gld-1 (Caenorhabditis elegans, UniProt Q17339); assay: blockers of GLD-1/TGE RNA complex formation – biochemical, fluorescence polarization, C. elegans, dose response (AID 2802);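 note: fluorescence polarization of labeled TGE RNA bound by purified gld-1 protein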
Female germline-specific tumor suppressor gld-1, sequence (Q17339 whole entry): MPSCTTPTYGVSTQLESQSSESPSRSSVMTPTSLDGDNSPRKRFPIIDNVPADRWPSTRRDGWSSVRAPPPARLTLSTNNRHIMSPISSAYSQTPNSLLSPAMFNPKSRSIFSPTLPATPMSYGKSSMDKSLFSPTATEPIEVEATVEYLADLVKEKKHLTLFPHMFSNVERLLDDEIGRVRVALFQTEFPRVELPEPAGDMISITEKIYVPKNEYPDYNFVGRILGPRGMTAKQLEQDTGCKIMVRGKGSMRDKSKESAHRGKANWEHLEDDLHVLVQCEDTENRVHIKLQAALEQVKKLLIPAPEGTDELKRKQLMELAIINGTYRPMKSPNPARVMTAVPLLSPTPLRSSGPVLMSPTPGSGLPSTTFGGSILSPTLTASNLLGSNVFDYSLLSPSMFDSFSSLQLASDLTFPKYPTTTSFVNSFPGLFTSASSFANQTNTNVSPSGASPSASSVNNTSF

T1 sequence (P41145 whole entry): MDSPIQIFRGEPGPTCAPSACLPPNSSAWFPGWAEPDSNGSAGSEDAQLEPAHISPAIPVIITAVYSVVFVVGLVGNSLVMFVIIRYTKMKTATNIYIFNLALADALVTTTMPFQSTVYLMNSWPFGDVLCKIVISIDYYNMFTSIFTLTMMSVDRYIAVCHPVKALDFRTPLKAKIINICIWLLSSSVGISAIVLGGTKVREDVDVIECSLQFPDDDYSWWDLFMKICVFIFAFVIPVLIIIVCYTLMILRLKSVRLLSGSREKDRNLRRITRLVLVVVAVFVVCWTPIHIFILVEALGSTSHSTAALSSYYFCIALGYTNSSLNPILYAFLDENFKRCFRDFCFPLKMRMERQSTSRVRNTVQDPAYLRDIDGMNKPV
Beta-galactosidase, sequence (Q8VNN2 whole entry): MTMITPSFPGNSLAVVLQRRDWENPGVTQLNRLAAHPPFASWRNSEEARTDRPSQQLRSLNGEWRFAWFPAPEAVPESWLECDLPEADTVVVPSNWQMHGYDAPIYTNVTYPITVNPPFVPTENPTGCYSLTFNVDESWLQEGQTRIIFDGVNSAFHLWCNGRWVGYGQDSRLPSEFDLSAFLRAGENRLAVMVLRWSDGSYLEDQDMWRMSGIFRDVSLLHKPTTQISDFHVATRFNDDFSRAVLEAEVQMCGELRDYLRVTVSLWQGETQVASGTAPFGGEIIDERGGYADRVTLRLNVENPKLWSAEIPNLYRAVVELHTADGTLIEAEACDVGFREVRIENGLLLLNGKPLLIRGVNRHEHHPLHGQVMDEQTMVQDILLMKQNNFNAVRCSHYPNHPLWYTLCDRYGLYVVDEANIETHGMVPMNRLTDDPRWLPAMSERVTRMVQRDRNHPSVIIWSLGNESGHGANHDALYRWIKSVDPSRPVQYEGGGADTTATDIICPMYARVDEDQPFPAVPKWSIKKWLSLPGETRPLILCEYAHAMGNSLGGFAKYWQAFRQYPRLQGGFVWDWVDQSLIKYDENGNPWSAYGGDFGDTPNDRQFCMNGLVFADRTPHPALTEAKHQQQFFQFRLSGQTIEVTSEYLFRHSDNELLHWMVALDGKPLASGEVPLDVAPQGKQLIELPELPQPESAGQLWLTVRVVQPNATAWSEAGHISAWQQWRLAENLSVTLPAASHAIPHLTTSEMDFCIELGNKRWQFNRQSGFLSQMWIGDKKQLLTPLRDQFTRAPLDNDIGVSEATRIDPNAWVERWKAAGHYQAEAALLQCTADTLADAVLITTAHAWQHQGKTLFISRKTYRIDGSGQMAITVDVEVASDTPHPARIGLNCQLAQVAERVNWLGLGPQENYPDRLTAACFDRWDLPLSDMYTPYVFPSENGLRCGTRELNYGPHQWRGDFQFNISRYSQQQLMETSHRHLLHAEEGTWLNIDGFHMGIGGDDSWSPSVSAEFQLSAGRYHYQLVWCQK

In the case of `C=CC/N=c1\scc(-c2ccc3c(c2)NC(=O)CO3)n1/N=C(\C)c1ccccn1`, the IC50 [1] is reported as 10.1 µM (active), the EC50 [2] is reported as > 31.5 µM (inactive) and the IC50 [3] is reported as over 32 µM.
For `COc1cccc2c1C(=O)c1c(O)c3c(c(O)c1C2=O)CC(O)(C(C)=NNC(=O)c1ccc(Cl)c(Cl)c1)CC3OC1CC(N)C(O)C(C)O1` (centres undefined), the IC50 [4] was 54.9 µM (active), the AC50 [5] was 0.562 µM (active) and the AC50 [6] was 4.72 µM (active). The AC50 [7] was 3.38 µM (active), the IC50 [8] was 3.67 µM (active) and the AC50 [9] was 13.2 µM (active). For the same compound, the CC50 [10] was 9.6 µM (active).
With `CCCn1c(N)c(N(CCOC)C(=O)Cc2ccc(S(=O)(=O)N3CCOCC3)s2)c(=O)[nH]c1=O` the EC50 [11] was > 300 µM (not active), the EC50 [12] was > 300 µM (not active) and the IC50 [13] was 39.6 µM (not active). For the same compound, the IC50 [14] was 16.2 µM (inactive).
